Measurements from ChEMBL document CHEMBL3991601, “The target landscape of clinical kinase drugs” (Science, 2017).
Calls of active or inactive are those of the source.

Tests used:
[1] = biological target: Cyclin-dependent kinase 5 (Homo sapiens, UniProt Q00535)
[2] = biological target: Cyclin-dependent kinase 7 (Homo sapiens, UniProt P50613)
[3] = biological target: Dual specificity protein kinase CLK1 (Homo sapiens, UniProt P49759)
[4] = biological target: T1, Serine/threonine-protein kinase Nek1 (Homo sapiens, UniProt Q96PY6)
T1 sequence (Q96PY6 whole entry): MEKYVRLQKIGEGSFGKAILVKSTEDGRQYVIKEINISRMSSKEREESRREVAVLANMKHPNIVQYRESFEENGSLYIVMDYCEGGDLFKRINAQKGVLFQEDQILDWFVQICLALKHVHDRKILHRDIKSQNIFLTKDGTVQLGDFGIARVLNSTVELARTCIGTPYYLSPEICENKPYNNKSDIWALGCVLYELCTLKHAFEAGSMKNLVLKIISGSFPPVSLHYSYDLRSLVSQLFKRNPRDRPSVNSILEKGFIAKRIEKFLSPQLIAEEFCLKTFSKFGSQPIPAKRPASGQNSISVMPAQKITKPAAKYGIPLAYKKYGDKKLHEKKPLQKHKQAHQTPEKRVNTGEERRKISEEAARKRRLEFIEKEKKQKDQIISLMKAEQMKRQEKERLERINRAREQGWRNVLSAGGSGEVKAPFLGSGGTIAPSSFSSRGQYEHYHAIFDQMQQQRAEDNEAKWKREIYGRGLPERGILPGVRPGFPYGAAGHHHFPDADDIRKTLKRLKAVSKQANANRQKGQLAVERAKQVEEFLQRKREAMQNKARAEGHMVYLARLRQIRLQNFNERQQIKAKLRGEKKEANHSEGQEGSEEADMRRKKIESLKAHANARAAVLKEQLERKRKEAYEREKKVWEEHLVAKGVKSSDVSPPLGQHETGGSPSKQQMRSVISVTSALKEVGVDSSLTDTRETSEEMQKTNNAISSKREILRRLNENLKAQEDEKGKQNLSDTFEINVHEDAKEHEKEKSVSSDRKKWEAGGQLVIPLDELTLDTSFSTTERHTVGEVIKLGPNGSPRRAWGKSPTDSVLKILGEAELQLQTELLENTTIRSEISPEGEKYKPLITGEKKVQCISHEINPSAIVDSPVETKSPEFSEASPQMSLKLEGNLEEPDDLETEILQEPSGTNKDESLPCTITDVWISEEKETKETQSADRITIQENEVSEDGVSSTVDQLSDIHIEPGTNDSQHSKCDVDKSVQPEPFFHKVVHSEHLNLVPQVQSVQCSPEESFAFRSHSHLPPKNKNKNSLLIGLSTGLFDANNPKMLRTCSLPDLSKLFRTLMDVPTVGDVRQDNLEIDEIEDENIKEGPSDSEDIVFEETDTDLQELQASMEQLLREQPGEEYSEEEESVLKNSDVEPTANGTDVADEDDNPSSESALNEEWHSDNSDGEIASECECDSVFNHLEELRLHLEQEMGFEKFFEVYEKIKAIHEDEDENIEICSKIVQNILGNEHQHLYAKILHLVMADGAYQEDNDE

[5] = biological target: T2, ATP-dependent 6-phosphofructokinase, platelet type (Homo sapiens, UniProt Q01813)
T2 sequence (Q01813 whole entry): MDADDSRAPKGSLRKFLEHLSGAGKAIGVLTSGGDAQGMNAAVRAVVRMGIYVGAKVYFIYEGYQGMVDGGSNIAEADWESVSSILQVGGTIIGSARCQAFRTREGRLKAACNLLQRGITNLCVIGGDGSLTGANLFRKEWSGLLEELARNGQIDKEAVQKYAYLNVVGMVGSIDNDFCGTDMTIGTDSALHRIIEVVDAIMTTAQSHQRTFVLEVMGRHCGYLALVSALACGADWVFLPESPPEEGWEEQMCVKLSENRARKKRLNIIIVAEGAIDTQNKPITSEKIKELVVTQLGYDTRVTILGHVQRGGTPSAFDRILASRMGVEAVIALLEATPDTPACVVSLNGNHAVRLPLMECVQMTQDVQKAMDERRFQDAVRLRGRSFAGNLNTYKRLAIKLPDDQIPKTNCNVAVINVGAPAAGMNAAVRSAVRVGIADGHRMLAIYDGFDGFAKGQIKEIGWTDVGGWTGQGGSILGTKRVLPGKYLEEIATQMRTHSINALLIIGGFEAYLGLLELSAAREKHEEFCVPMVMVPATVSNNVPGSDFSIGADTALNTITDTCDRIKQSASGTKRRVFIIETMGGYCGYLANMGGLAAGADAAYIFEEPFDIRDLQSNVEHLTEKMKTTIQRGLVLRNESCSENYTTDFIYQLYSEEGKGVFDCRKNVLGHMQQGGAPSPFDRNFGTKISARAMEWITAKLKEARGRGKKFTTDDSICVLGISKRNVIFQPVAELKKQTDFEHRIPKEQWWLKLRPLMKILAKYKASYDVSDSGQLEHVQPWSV

[6] = biological target: T3, Serine/threonine-protein kinase STK11 (Homo sapiens, UniProt Q15831)
T3 sequence (Q15831 whole entry): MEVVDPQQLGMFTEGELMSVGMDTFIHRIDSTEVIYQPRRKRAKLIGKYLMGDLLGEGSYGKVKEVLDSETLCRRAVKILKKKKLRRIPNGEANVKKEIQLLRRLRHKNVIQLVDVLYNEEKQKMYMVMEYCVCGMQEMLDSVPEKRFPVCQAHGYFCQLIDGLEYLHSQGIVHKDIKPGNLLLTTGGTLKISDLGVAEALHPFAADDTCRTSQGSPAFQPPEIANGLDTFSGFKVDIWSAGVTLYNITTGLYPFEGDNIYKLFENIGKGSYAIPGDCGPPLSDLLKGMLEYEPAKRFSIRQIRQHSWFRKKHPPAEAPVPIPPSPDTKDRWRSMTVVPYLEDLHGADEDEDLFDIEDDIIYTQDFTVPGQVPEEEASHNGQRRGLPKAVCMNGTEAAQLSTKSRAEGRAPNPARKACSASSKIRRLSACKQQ

Measured: Kd
Also: in the data inactive means no Kd found up to 30 µM.

Chain of Dual specificity protein kinase CLK1 (P49759 whole entry): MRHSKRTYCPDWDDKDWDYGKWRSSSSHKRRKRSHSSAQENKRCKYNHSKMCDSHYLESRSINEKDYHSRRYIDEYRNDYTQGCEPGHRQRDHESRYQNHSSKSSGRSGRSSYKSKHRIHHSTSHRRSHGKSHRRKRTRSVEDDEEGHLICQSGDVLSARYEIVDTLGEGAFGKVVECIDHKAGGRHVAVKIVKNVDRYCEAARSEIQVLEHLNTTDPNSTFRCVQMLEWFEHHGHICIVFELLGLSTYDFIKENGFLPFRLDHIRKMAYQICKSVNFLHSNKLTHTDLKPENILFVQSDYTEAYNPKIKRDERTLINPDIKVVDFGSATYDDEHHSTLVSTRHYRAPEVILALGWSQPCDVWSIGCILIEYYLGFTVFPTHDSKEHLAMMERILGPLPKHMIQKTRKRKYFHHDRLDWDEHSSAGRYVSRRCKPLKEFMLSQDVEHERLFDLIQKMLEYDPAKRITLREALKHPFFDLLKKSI
Chain of Cyclin-dependent kinase 7 (P50613 whole entry): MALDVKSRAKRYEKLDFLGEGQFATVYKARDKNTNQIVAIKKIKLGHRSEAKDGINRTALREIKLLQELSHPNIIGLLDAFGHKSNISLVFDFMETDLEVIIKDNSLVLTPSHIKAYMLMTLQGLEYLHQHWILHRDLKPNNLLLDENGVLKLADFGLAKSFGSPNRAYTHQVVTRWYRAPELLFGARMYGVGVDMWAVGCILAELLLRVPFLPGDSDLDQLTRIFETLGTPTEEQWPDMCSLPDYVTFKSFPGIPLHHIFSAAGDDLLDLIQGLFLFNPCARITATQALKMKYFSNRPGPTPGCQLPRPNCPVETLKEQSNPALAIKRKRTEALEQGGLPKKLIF
Chain of Cyclin-dependent kinase 5 (Q00535 whole entry): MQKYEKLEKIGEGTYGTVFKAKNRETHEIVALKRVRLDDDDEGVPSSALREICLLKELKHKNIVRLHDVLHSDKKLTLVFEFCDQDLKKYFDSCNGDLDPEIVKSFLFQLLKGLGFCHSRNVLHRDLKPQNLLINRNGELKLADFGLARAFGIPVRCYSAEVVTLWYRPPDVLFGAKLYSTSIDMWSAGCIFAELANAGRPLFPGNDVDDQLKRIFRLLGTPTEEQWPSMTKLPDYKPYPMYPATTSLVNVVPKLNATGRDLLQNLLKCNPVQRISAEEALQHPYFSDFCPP

CC[C@@H]1C(=O)N(C)c2cnc(Nc3ccc(C(=O)N[C@H]4CC[C@H](N5CCN(CC6CC6)CC5)CC4)cc3OC)nc2N1C(C)C [VOLASERTIB]
inactive: [1] > 30 µM | [2] > 30 µM | [3] > 30 µM | [4] > 30 µM | [5] > 30 µM | [6] > 30 µM

O=c1sn(-c2cccc3ccccc23)c(=O)n1Cc1ccccc1 [TIDEGLUSIB]
inactive: [1] > 30 µM | [2] > 30 µM | [3] > 30 µM | [4] > 30 µM | [5] > 30 µM | [6] > 30 µM

CO[C@H]1C[C@@H]2CC[C@@H](C)[C@@](O)(O2)C(=O)C(=O)N2CCCC[C@H]2C(=O)O[C@H]([C@H](C)C[C@@H]2CC[C@@H](OCCO)[C@H](OC)C2)CC(=O)[C@H](C)/C=C(\C)[C@@H](O)[C@@H](OC)C(=O)[C@H](C)C[C@H](C)/C=C/C=C/C=C/1C [EVEROLIMUS]
inactive: [1] > 30 µM | [2] > 30 µM | [3] > 30 µM | [4] > 30 µM | [5] > 30 µM | [6] > 30 µM

CN(C)C(=O)c1cc2cnc(Nc3ccc(N4CCNCC4)cn3)nc2n1C1CCCC1 [RIBOCICLIB]
inactive: [1] > 30 µM | [2] > 30 µM | [3] > 30 µM | [4] > 30 µM | [5] > 30 µM | [6] > 30 µM

CC(C)Nc1cc(-c2c[nH]c(C(=O)N[C@H](CO)c3cccc(Cl)c3)c2)c(Cl)cn1 [ULIXERTINIB]
inactive: [1] > 30 µM | [2] > 30 µM | [3] > 30 µM | [4] > 30 µM | [5] > 30 µM | [6] > 30 µM
